According to PubChem BioAssay (NCI):
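Exposure lasted 48 hours, with cells grown in 96-well plates and compounds tested at five concentrations. TGI: total growth inhibition.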

Tests used:
Experiment in all cases: NCI-60 cell line screen, 48 h
786-0 renal = system: 786-0 renal
A498 renal = system: A498 renal
A549 NSCLC = system: A549 NSCLC
ACHN renal = system: ACHN renal
CAKI-1 renal = system: CAKI-1 renal
CCRF-CEM leukemia = system: CCRF-CEM leukemia
COLO 205 colon = system: COLO 205 colon
DLD-1 colon = system: DLD-1 colon
DMS 114 small cell lung = system: DMS 114 small cell lung
DMS 273 small cell lung = system: DMS 273 small cell lung
EKVX NSCLC = system: EKVX NSCLC
HCC-2998 colon = system: HCC-2998 colon
HCT-116 colon = system: HCT-116 colon
HCT-15 colon = system: HCT-15 colon
HL-60(TB) leukemia = system: HL-60(TB) leukemia
HOP-62 NSCLC = system: HOP-62 NSCLC
HT29 colon = system: HT29 colon
IGROV1 ovarian = system: IGROV1 ovarian
K-562 leukemia = system: K-562 leukemia
KM12 colon = system: KM12 colon
KM20L2 colon = system: KM20L2 colon
LOX IMVI melanoma = system: LOX IMVI melanoma
M14 melanoma = system: M14 melanoma
M19-MEL melanoma = system: M19-MEL melanoma
MALME-3M melanoma = system: MALME-3M melanoma
MOLT-4 leukemia = system: MOLT-4 leukemia
NCI-H226 lung = system: NCI-H226 lung
NCI-H23 lung = system: NCI-H23 lung
NCI-H460 lung = system: NCI-H460 lung
NCI-H522 lung = system: NCI-H522 lung
OVCAR-3 ovarian = system: OVCAR-3 ovarian
OVCAR-4 ovarian = system: OVCAR-4 ovarian
OVCAR-5 ovarian = system: OVCAR-5 ovarian
OVCAR-8 ovarian = system: OVCAR-8 ovarian
RPMI-8226 leukemia = system: RPMI-8226 leukemia
RXF 393 renal = system: RXF 393 renal
RXF-631 renal = system: RXF-631 renal
SF-268 CNS = system: SF-268 CNS
SF-295 CNS = system: SF-295 CNS
SF-539 CNS = system: SF-539 CNS
SK-MEL-2 melanoma = system: SK-MEL-2 melanoma
SK-MEL-28 melanoma = system: SK-MEL-28 melanoma
SK-MEL-5 melanoma = system: SK-MEL-5 melanoma
SK-OV-3 ovarian = system: SK-OV-3 ovarian
SN12C renal = system: SN12C renal
SNB-19 CNS = system: SNB-19 CNS
SNB-75 CNS = system: SNB-75 CNS
SNB-78 CNS = system: SNB-78 CNS
SR leukemia = system: SR leukemia
SW-620 colon = system: SW-620 colon
TK-10 renal = system: TK-10 renal
U251 CNS = system: U251 CNS
UACC-257 melanoma = system: UACC-257 melanoma
UACC-62 melanoma = system: UACC-62 melanoma
UO-31 renal = system: UO-31 renal
HOP-18 NSCLC = system: HOP-18 NSCLC
LXFL 529 NSCLC = system: LXFL 529 NSCLC
HOP-92 NSCLC = system: HOP-92 NSCLC

With `CC(C)CC(N=Cc1nc(-c2ccccc2)oc1O)C(=O)O` (centres undefined) the TGI (786-0 renal) was over 100 µM, the TGI (A498 renal) was over 100 µM and the TGI (A549 NSCLC) was over 100 µM. The TGI (ACHN renal) was over 100 µM, the TGI (CAKI-1 renal) was over 100 µM and the TGI (CCRF-CEM leukemia) was over 100 µM. It also gave a TGI (COLO 205 colon) of over 100 µM, a TGI (DLD-1 colon) of over 100 µM and a TGI (DMS 114 small cell lung) of over 100 µM. It also gave a TGI (DMS 273 small cell lung) of over 100 µM, a TGI (EKVX NSCLC) of over 100 µM and a TGI (HCC-2998 colon) of over 100 µM. For the same molecule, the TGI (HCT-116 colon) was over 100 µM, the TGI (HCT-15 colon) was over 100 µM and the TGI (HL-60(TB) leukemia) was over 100 µM. For the same molecule, the TGI (HOP-62 NSCLC) was over 100 µM, the TGI (HT29 colon) was over 100 µM and the TGI (IGROV1 ovarian) was over 100 µM. The TGI (K-562 leukemia) was over 100 µM, the TGI (KM12 colon) was over 100 µM and the TGI (KM20L2 colon) was over 100 µM. It also gave a TGI (LOX IMVI melanoma) of over 100 µM, a TGI (M14 melanoma) of over 100 µM and a TGI (M19-MEL melanoma) of over 100 µM. For the same molecule, the TGI (MALME-3M melanoma) was over 100 µM, the TGI (MOLT-4 leukemia) was over 100 µM and the TGI (NCI-H226 lung) was over 100 µM. For the same molecule, the TGI (NCI-H23 lung) was over 100 µM, the TGI (NCI-H460 lung) was over 100 µM and the TGI (NCI-H522 lung) was over 100 µM. The TGI (OVCAR-3 ovarian) was over 100 µM, the TGI (OVCAR-4 ovarian) was over 100 µM and the TGI (OVCAR-5 ovarian) was over 100 µM. For the same molecule, the TGI (OVCAR-8 ovarian) was over 100 µM, the TGI (RPMI-8226 leukemia) was over 100 µM and the TGI (RXF 393 renal) was over 100 µM. It also gave a TGI (RXF-631 renal) of over 100 µM, a TGI (SF-268 CNS) of over 100 µM and a TGI (SF-295 CNS) of over 100 µM. The TGI (SF-539 CNS) was over 100 µM, the TGI (SK-MEL-2 melanoma) was over 100 µM and the TGI (SK-MEL-28 melanoma) was over 100 µM. It also gave a TGI (SK-MEL-5 melanoma) of over 100 µM, a TGI (SK-OV-3 ovarian) of over 100 µM and a TGI (SN12C renal) of over 100 µM. The TGI (SNB-19 CNS) was over 100 µM, the TGI (SNB-75 CNS) was over 100 µM and the TGI (SNB-78 CNS) was over 100 µM. The TGI (SR leukemia) was over 100 µM, the TGI (SW-620 colon) was over 100 µM and the TGI (TK-10 renal) was over 100 µM. The TGI (U251 CNS) was over 100 µM, the TGI (UACC-257 melanoma) was over 100 µM and the TGI (UACC-62 melanoma) was over 100 µM. It also gave a TGI (UO-31 renal) of over 100 µM.
`CC1=C(/C=C/C(C)=C/C=C/C(C)=C/C=C/C=C(C)/C=C/C=C(C)/C=C/C=C(C)/C=C/C=C(\C)C(=O)O)C(C)(C)CCC1` gave a TGI (786-0 renal) of over 100 µM, a TGI (A498 renal) of over 100 µM and a TGI (A549 NSCLC) of over 100 µM. The TGI (ACHN renal) was over 100 µM, the TGI (CAKI-1 renal) was over 100 µM and the TGI (CCRF-CEM leukemia) was over 100 µM. It also gave a TGI (COLO 205 colon) of over 100 µM, a TGI (DLD-1 colon) of over 100 µM and a TGI (DMS 114 small cell lung) of over 100 µM. For the same molecule, the TGI (DMS 273 small cell lung) was over 100 µM, the TGI (EKVX NSCLC) was over 100 µM and the TGI (HCT-116 colon) was over 100 µM. The TGI (HCT-15 colon) was over 100 µM, the TGI (HOP-18 NSCLC) was over 100 µM and the TGI (HOP-62 NSCLC) was over 100 µM. The TGI (HT29 colon) was over 100 µM, the TGI (IGROV1 ovarian) was over 100 µM and the TGI (K-562 leukemia) was over 100 µM. For the same molecule, the TGI (KM12 colon) was over 100 µM, the TGI (KM20L2 colon) was over 100 µM and the TGI (LXFL 529 NSCLC) was over 100 µM. For the same molecule, the TGI (M14 melanoma) was over 100 µM, the TGI (MALME-3M melanoma) was over 100 µM and the TGI (MOLT-4 leukemia) was over 100 µM. It also gave a TGI (NCI-H226 lung) of over 100 µM, a TGI (NCI-H23 lung) of over 100 µM and a TGI (NCI-H460 lung) of over 100 µM. For the same molecule, the TGI (NCI-H522 lung) was over 100 µM, the TGI (OVCAR-3 ovarian) was over 100 µM and the TGI (OVCAR-4 ovarian) was over 100 µM. The TGI (OVCAR-5 ovarian) was over 100 µM, the TGI (OVCAR-8 ovarian) was over 100 µM and the TGI (RPMI-8226 leukemia) was over 100 µM. It also gave a TGI (RXF 393 renal) of over 100 µM, a TGI (RXF-631 renal) of over 100 µM and a TGI (SF-268 CNS) of over 100 µM. The TGI (SF-295 CNS) was over 100 µM, the TGI (SF-539 CNS) was over 100 µM and the TGI (SK-MEL-2 melanoma) was over 100 µM. For the same molecule, the TGI (SK-MEL-28 melanoma) was over 100 µM, the TGI (SK-MEL-5 melanoma) was over 100 µM and the TGI (SK-OV-3 ovarian) was over 100 µM. It also gave a TGI (SN12C renal) of over 100 µM, a TGI (SNB-19 CNS) of over 100 µM and a TGI (SNB-75 CNS) of over 100 µM. It also gave a TGI (SNB-78 CNS) of over 100 µM, a TGI (SW-620 colon) of over 100 µM and a TGI (TK-10 renal) of over 100 µM. The TGI (U251 CNS) was over 100 µM, the TGI (UACC-257 melanoma) was over 100 µM and the TGI (UACC-62 melanoma) was over 100 µM. For the same molecule, the TGI (UO-31 renal) was over 100 µM.
`O=C(C=P(c1ccccc1)(c1ccccc1)c1ccccc1)CC(=S)CC(=O)C=P(c1ccccc1)(c1ccccc1)c1ccccc1` showed a TGI (786-0 renal) of over 100 µM, a TGI (A498 renal) of 20.6 µM and a TGI (A549 NSCLC) of over 100 µM. For the same molecule, the TGI (ACHN renal) was 53.6 µM, the TGI (CAKI-1 renal) was over 100 µM and the TGI (CCRF-CEM leukemia) was over 100 µM. For the same molecule, the TGI (COLO 205 colon) was 3.71 µM, the TGI (DLD-1 colon) was 17.9 µM and the TGI (DMS 114 small cell lung) was 27 µM. It also gave a TGI (DMS 273 small cell lung) of 10.1 µM, a TGI (EKVX NSCLC) of over 100 µM and a TGI (HCC-2998 colon) of 14.7 µM. For the same molecule, the TGI (HCT-116 colon) was over 100 µM, the TGI (HCT-15 colon) was 29.3 µM and the TGI (HOP-18 NSCLC) was 9.04 µM. The TGI (HOP-62 NSCLC) was 24.8 µM, the TGI (HOP-92 NSCLC) was 6.09 µM and the TGI (HT29 colon) was over 100 µM. It also gave a TGI (IGROV1 ovarian) of over 100 µM, a TGI (K-562 leukemia) of over 100 µM and a TGI (KM12 colon) of 18.8 µM. The TGI (KM20L2 colon) was over 100 µM, the TGI (LOX IMVI melanoma) was over 100 µM and the TGI (LXFL 529 NSCLC) was 20.1 µM. It also gave a TGI (M14 melanoma) of 20.5 µM, a TGI (M19-MEL melanoma) of over 100 µM and a TGI (MALME-3M melanoma) of over 100 µM. For the same molecule, the TGI (NCI-H226 lung) was 24.1 µM, the TGI (NCI-H23 lung) was 16.4 µM and the TGI (NCI-H460 lung) was 46.7 µM. The TGI (NCI-H522 lung) was 15.7 µM, the TGI (OVCAR-3 ovarian) was 12.5 µM and the TGI (OVCAR-4 ovarian) was over 100 µM. For the same molecule, the TGI (OVCAR-5 ovarian) was 80 µM, the TGI (OVCAR-8 ovarian) was 22.9 µM and the TGI (RPMI-8226 leukemia) was over 100 µM. The TGI (RXF 393 renal) was 25.2 µM, the TGI (RXF-631 renal) was over 100 µM and the TGI (SF-268 CNS) was over 100 µM. The TGI (SF-295 CNS) was 14.5 µM, the TGI (SF-539 CNS) was 25 µM and the TGI (SK-MEL-28 melanoma) was over 100 µM. The TGI (SK-MEL-5 melanoma) was 8.26 µM, the TGI (SK-OV-3 ovarian) was over 100 µM and the TGI (SN12C renal) was 17.9 µM. The TGI (SNB-19 CNS) was over 100 µM, the TGI (SW-620 colon) was over 100 µM and the TGI (TK-10 renal) was 50.8 µM. The TGI (U251 CNS) was 11.7 µM, the TGI (UACC-257 melanoma) was 13 µM and the TGI (UACC-62 melanoma) was 47.1 µM. The TGI (UO-31 renal) was 98.9 µM.
